{
  "source": "paper PMC3199867",
  "about": "“Targeting surface nucleolin with multivalent HB-19 and related Nucant pseudopeptides results in distinct inhibitory mechanisms depending on the malignant tumor cell type” (BMC Cancer, 2011)",
  "key": {"[1]": {"test_system": "surface nucleolin", "assay": "HIV-1 LAI entry into HeLa-CD4-LTR-LacZ cells (β-galactosidase): function of surface nucleolin", "assay_type": "cell-based, human", "settings": "0.05-0.8 μM, β-galactosidase at 48 h post-infection", "excerpt": "Surface nucleolin serves as a low affinity receptor implicated in the binding and entry of HIV-1 particles into permissive cells. Consequently, HB-19 treatment of cells prevents HIV binding to cells and thus HIV entry and infection. Here HIV-1 LAI entry was monitored in HeLa-CD4-LTR-LacZ cells containing the bacterial lacZ gene under the control of HIV-1 LTR. Virus entry and replication result in trans-activation of HIV-1 LTR by the viral Tat protein, leading to the expression of β-galactosidase. At 48 h post-infection, cell monolayers are lysed in a phosphate buffer containing Nonidet P-40 (Sigma) (1%; v ⁄ v) and assayed for β-galactosidase activity by measuring optical density at 570 nm.\nFigure 2 HB-19 and related Nucant pseudopeptides antagonize surface nucleolin and trigger its down regulation. A. Multivalent pseudopeptides block the biological function of surface nucleolin for HIV entry. […] At 48 h post-infection, the β-galactosidase activity was measured in cell extracts directly to monitor HIV entry (Methods). The abscissa gives % Activity of surface nucleolin calculated from the optical density measurements at 570 nm. […] Cytoplasmic (containing cytoplasmic as well as surface nucleolin) and nuclear extracts were analyzed by immunoblotting using mAb D3 as described (Methods)(panels Surface/cytoplasmic NCL, Nuclear NCL). […]"}, "[2]": {"test_system": "TIII", "assay": "Cell growth / proliferation (viable cell number)", "assay_type": "cell-based, murine", "settings": "mean of at least 2 independent experiments; for % Inhibition of cell Proliferation: after 3 days of culture, vs untreated control; for % Growth inhibition After 3 days: N6 or N7 20 μM, viable cell number vs untreated control", "procedure": "(§1) Human breast (MDA-MB-231, MDA-MB-435 [37]), prostate (LNCaP, from American Type Culture Collection, ATCC, Rockville, MD), and cervical (HeLa) epithelial cancer cells were grown in DMEM-glutamax medium (Gibco Invitrogen, Cergy-Pontoise, France) containing GlutaMAX™, 4.5 g/l glucose and supplemented with 10% heat-inactivated (56°C for 30 min) fetal bovine serum (FBS; Hyclone, Thermo Fisher Scientific, Inc). Human SW480 cells are derived from a grade 3-4 colon carcinoma, while the highly metastatic counterpart SW620 is established from the lymph node of a person. Both SW480 and SW620 cells (obtained from Francis Raul, IRCAD) are highly tumorigenic in nude mice. They were cultured in D-MEM, 10% FCS. The murine melanoma TIII cell line was obtained from Armelle Prévost-Blondel. Murine T29 lymphoma cells, obtained from Philippe Kastner (CNRS, Strasbourg), have been established from Ik^L/L tumors from mice carrying a hypomorphic mutation (Ik^L/L) in the Ikaros gene encoding a transcription factor that regulates lymphocyte differentiation, and acts also as a tumor suppressor in T lymphocytes. The T29 cells were cultured in RPMI medium containing 25 mM Hepes pH 7.6, 1 mM sodium pyruvate, and 10% FCS. Human leukemia cell lines, Jurkat (acute T cell leukemia), HuT 78 (cutaneous T lymphocyte), RAJI (Burkitt lymphoma), and HL60 (promyelocytic leukemia) were cultured in RPMI-1640 medium (Gibco) containing GlutaMAX™, and supplemented with 10% heat-inactivated FBS as described before. The wild-type Chinese hamster ovary cell line (CHO K1) was purchased from American Type Culture Collection (ATCC; Rockville, MD). The CHO LRP1-null cell line (CHO-13-5-1) was kindly provided by D. Strickland [47]. They were cultured in Ham's F12K medium. All cells were cultured with 10% (v/v) heat inactivated (56°C, 30 min) fetal bovine serum (FBS) (Roche Molecular Biochemicals, Indianapolis, IN) and 50 international units/mL penicillin-streptomycin (Invitrogen). Cell death was monitored conveniently by uptake of the trypan blue dye due to plasma membrane permeability of dying and/or dead cells."}, "[3]": {"test_system": "HL60", "assay": "Cell growth (viable cell number)", "assay_type": "cell-based, human", "settings": "N6 or N7 20 μM, viable cell number vs untreated control, mean of at least 2 independent experiments", "procedure": "as §1"}, "[4]": {"test_system": "HeLa", "assay": "Cell growth (viable cell number)", "assay_type": "cell-based, human", "settings": "N6 or N7 20 μM, viable cell number vs untreated control, mean of at least 2 independent experiments", "procedure": "as §1"}, "[5]": {"test_system": "HuT 78", "assay": "Cell growth (viable cell number)", "assay_type": "cell-based, human", "settings": "N6 or N7 20 μM, viable cell number vs untreated control, mean of at least 2 independent experiments", "procedure": "as §1"}, "[6]": {"test_system": "Jurkat", "assay": "Cell growth (viable cell number)", "assay_type": "cell-based, human", "settings": "N6 or N7 20 μM, viable cell number vs untreated control, mean of at least 2 independent experiments", "procedure": "as §1"}, "[7]": {"test_system": "LNCaP", "assay": "Cell growth (viable cell number)", "assay_type": "cell-based, human", "settings": "N6 or N7 20 μM, viable cell number vs untreated control, mean of at least 2 independent experiments", "procedure": "as §1"}, "[8]": {"test_system": "MDA-MB 231", "assay": "Cell growth (viable cell number)", "assay_type": "cell-based, human", "settings": "N6 or N7 20 μM, viable cell number vs untreated control, mean of at least 2 independent experiments", "procedure": "as §1"}, "[9]": {"test_system": "MDA-MB 435", "assay": "Cell growth (viable cell number)", "assay_type": "cell-based, human", "settings": "N6 or N7 20 μM, viable cell number vs untreated control, mean of at least 2 independent experiments", "procedure": "as §1"}, "[10]": {"test_system": "RAJI", "assay": "Cell growth (viable cell number)", "assay_type": "cell-based, human", "settings": "N6 or N7 20 μM, viable cell number vs untreated control, mean of at least 2 independent experiments", "procedure": "as §1"}, "[11]": {"test_system": "HuT 78", "assay": "Cell death (trypan blue uptake)", "assay_type": "cell-based, human", "settings": "HuT 78, freshly passaged; N6 or N7 20 μM; trypan blue uptake; mean of at least 2 independent experiments", "procedure": "as §1, with “cells. […]” for “cells.”"}},
  "data": [
    {"substance": "Ac-Lys-Aib-Gly-Lys-Aib-Gly-Lys-Aib-Gly-Lys-Aib-Gly-Lys-Aib-Gly-Lys-Aib-Gly-CONH2 [Nucant N6, Presents hexavalently the pseudo-tripeptide Lysψ(CH2N)-Pro-Arg coupled to the polypeptide template containing Aib]", "values": [
      {"measurement": "inhibitory activity on HIV-1 entry, fold more active compared to the pentavalent constructs N3 and HB-19", "setting": "[1]", "value": "at least 2 fold"},
      {"measurement": "% Inhibition of cell Proliferation", "setting": "[2]; 2.5 μM", "value": 12, "unit": "%"},
      {"measurement": "% Inhibition of cell Proliferation", "setting": "[2]; 5 μM", "value": 20, "unit": "%"},
      {"measurement": "% Inhibition of cell Proliferation", "setting": "[2]; 10 μM", "value": 32, "unit": "%"},
      {"measurement": "% Inhibition of cell Proliferation", "setting": "[2]; 20 μM", "value": 45, "unit": "%"},
      {"measurement": "% Growth inhibition After 3 days", "setting": "[2]", "value": 55, "unit": "%"},
      {"measurement": "% Growth inhibition After 3 days", "setting": "[3]", "value": 65, "unit": "%"},
      {"measurement": "% Growth inhibition After 3 days", "setting": "[4]", "value": 46, "unit": "%"},
      {"measurement": "% Growth inhibition After 3 days", "setting": "[5]", "value": 62, "unit": "%"},
      {"measurement": "% Growth inhibition After 3 days", "setting": "[6]", "value": 80, "unit": "%"},
      {"measurement": "% Growth inhibition After 3 days", "setting": "[7]", "value": 88, "unit": "%"},
      {"measurement": "% Growth inhibition After 3 days", "setting": "[8]", "value": 92, "unit": "%"},
      {"measurement": "% Growth inhibition After 3 days", "setting": "[9]", "value": 58, "unit": "%"},
      {"measurement": "% Growth inhibition After 3 days", "setting": "[10]", "value": 75, "unit": "%"},
      {"measurement": "% Cell death After 24 hours", "setting": "[11]", "value": 44, "unit": "%"}
    ]},
    {"substance": "Ac-KAKPGKAKPGKAKPG-NH2 [Nucant N7, Presents hexavalently the pseudo-tripeptide Lysψ(CH2N)-Pro-Arg coupled to a similar template as in HB-19]", "values": [
      {"measurement": "inhibitory activity on HIV-1 entry, fold more active compared to the pentavalent constructs N3 and HB-19", "setting": "[1]", "value": "at least 2 fold"},
      {"measurement": "% Growth inhibition After 3 days", "setting": "[2]", "value": 55, "unit": "%"},
      {"measurement": "% Growth inhibition After 3 days", "setting": "[3]", "value": 65, "unit": "%"},
      {"measurement": "% Growth inhibition After 3 days", "setting": "[4]", "value": 46, "unit": "%"},
      {"measurement": "% Growth inhibition After 3 days", "setting": "[5]", "value": 62, "unit": "%"},
      {"measurement": "% Growth inhibition After 3 days", "setting": "[6]", "value": 80, "unit": "%"},
      {"measurement": "% Growth inhibition After 3 days", "setting": "[7]", "value": 88, "unit": "%"},
      {"measurement": "% Growth inhibition After 3 days", "setting": "[8]", "value": 92, "unit": "%"},
      {"measurement": "% Growth inhibition After 3 days", "setting": "[9]", "value": 58, "unit": "%"},
      {"measurement": "% Growth inhibition After 3 days", "setting": "[10]", "value": 75, "unit": "%"},
      {"measurement": "% Cell death After 24 hours", "setting": "[11]", "value": 44, "unit": "%"}
    ]}
  ]
}
